Laboratory results published in ChEMBL document CHEMBL5726115, “Triazolo compounds” (2017).

Biological target: cAMP and cAMP-inhibited cGMP 3',5'-cyclic phosphodiesterase 10A (Homo sapiens, UniProt Q9Y233)
Assay: Inhibition Assay: The human PDE10A full length assay was performed in 96-well micro titer plates. The reaction mixture of 50 μl contained 20 mM HEPES pH=7.5/10 mM MgCl2/0.05 mg/ml BSA (Sigma cat. #A-7906), 50 nM cGMP (Sigma, cat. #G6129) and 50 nM [3H]-cGMP (GE Healthcare, cat. #TRK392 S.A. 13.2 Ci/mmol), 3.75 ng/well PDE10A enzyme (Enzo Life Science, Lausen, Switzerland cat #SE-534) with or without a specific test compound. A range of concentrations of the potential inhibitor was used to generate data for calculating the concentration of inhibitor resulting in 50% of the effect (e.g. IC50, the concentration of the competitor inhibiting PDE10A activity by 50%). Non-specific activity was tested without the enzyme. The reaction was initiated by the addition of the substrate solution (cGMP and [3H]-cGMP) and allowed to progress for 20 minutes at room temperature. The reaction was terminated by adding 25 μl of YSi-SPA scintillation beads (GE Healthcare, cat. #RPNQ0150) in 18 mM zinc sulphate solution (stop reagent). After 1 h under shaking, the plate was centrifuged one minute at 170 g to allow beads to settle. Afterwards, radioactive counts were measured on a Perkin Elmer TopCount Scintillation plate reader.

Sequence of cAMP and cAMP-inhibited cGMP 3',5'-cyclic phosphodiesterase 10A (Q9Y233 whole entry): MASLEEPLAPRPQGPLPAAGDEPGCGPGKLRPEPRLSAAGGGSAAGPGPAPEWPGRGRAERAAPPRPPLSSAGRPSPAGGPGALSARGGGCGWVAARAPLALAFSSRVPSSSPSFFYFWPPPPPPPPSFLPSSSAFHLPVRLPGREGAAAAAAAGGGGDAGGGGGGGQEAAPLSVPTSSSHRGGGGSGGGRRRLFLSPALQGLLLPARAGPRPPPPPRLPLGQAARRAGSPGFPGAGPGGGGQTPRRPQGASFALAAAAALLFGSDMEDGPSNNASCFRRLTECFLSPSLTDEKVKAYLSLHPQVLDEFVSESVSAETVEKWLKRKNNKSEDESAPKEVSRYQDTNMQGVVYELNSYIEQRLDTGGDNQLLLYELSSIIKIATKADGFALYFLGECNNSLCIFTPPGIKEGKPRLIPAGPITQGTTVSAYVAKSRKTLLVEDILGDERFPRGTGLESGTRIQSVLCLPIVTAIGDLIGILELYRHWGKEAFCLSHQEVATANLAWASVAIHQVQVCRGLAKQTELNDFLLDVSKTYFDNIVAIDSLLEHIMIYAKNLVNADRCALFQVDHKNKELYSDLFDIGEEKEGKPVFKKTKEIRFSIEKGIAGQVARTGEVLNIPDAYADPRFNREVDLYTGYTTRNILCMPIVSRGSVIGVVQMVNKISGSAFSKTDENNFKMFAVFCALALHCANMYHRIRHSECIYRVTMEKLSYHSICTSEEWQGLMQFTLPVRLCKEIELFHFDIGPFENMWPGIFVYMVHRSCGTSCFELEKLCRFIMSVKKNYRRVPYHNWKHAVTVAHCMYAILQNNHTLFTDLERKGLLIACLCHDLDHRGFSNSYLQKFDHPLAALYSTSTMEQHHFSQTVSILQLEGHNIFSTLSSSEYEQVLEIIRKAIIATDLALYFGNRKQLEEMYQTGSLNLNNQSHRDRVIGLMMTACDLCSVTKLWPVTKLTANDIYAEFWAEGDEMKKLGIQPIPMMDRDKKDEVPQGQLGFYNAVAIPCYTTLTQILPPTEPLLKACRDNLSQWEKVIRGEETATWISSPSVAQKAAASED

IC50 [nM]	SMILES
6.6	Cc1cn2nc(C)c(C)c2nc1C#Cc1nc(N2CCCC2)nn1C
165	Cc1nc2cc(C(F)(F)F)c(CCc3nc(N4CCCC4)nn3C)nn2c1C
